In general, IC50 refers to the concentration that gives 50% inhibition.

In the first test the target is T1, human KCNK13 (Homo sapiens, UniProt Q9HB14).
T1 construct: expressed in transfected cells
T1 sequence (Q9HB14 1-408): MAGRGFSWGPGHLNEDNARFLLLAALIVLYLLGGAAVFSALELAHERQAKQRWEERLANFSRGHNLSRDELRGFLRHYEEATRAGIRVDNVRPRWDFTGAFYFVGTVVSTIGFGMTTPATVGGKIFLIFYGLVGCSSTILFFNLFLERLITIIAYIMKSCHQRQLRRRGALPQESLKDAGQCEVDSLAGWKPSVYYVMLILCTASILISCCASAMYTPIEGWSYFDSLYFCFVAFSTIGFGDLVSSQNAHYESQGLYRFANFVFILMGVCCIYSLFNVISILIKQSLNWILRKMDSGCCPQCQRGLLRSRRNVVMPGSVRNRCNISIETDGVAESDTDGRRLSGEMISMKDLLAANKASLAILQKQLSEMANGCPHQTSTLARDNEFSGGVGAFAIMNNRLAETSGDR
The test is described as follows: KCNK13 antagonist activity, thallium (Tl+) flux FLIPR assay. It counts as cell-based.
Settings: not given
On the procedure:
KCNK13 antagonist activity was determined by measuring changes in intracellular Thallium (Tl^+) concentrations using a Tl^+ sensitive fluorescent dye. The changes in fluorescent signal were monitored by Fluorescent Imaging Plate Reader (FLIPR™) technology available from Molecular Devices, LLC, US. KCNK13 mediated increases in intracellular Tl+concentration were readily detected by addition of a thallium sulfate stimulus. 24 hours prior to the assay, human embryonic kidney 293 cells (HEK 293 cells) stably expressing human KCNK13 were seeded in cell culture medium in PDL coated black, clear-bottom 384-well plates (commercially available from Corning Inc., 356663) and grown overnight at 37° C., 5% CO2. On the day of the assay, cell culture media was removed and cells were loaded with potassium dye (commercially sold by Molecular Devices, LLC, US, R8222) for 1 hour at room temperature in the dark. Test compounds (at 10 point half log concentration response curves from […]) were added to cells for 15 minutes prior to the addition of thallium sulfate to all wells. The IC50 values were determined from ten point concentration response curves. Curves were generated using the average of two wells for each data point.
Consider `Nc1nonc1-c1nc2cccnc2n1Cc1cncnc1` [Example 15, 4-[3-(pyrimidin-5-ylmethyl)imidazo[4,5-b]pyridin-2-yl]-1,2,5-oxadiazol-3-amine], for which the half-inhibitory concentration (IC50) is less than 200 nM.

Still in this test, the particulars now being: HEK 293 cells stably expressing human KCNK13; Tl+ sensitive dye, FLIPR; compounds 15 minutes prior to thallium sulfate; 10 point half log curves from 10 PM; read-out: hKCNK13 IC50.
As for `Cc1nsnc1-c1nc2cccc(F)c2n1Cc1cccnn1` [Example 139, 3-(7-fluoro-1-(pyridazin-3-ylmethyl)-benzimidazol-2-yl)-4-methyl-1,2,5-thiadiazole], the IC50 is less than 100 nM.
Consider `Cc1nocc1-c1nc2ccccc2n1Cc1cccnc1` [Example 112, 3-methyl-4-[1-(pyridin-3-ylmethyl)benzimidazol-2-yl]isoxazole], for which the IC50 was less than 500 nM.
As for `Cc1nonc1-c1nc2ccccc2n1Cc1ccc(Cl)nc1` [Example 60, 3-[1-[(6-chloropyridin-3-yl)methyl]benzimidazol-2-yl]-4-methyl-1,2,5-oxadiazole], the IC50 was less than 100 nM.
For `Nc1nonc1-c1nc2c(F)cccc2n1Cc1ccnnc1` (single isomer, unassigned) [Example 133, 4-(4-fluoro-1-(pyridazin-4-ylmethyl)-benzimidazol-2-yl)-1,2,5-oxadiazol-3-amine], the 50% inhibitory concentration (IC50) was less than 100 nM.
Consider `CNc1nsnc1-c1nc2cccc(F)c2n1Cc1cccnn1` [Example 143, 4-(7-fluoro-1-(pyridazin-3-ylmethyl)-benzimidazol-2-yl)-N-methyl-1,2,5-thiadiazol-3-amine], for which the IC50 was less than 200 nM.
Take `Nc1nocc1-c1nc2cccc(F)c2n1Cc1cccnn1` [Example 158, 4-(7-fluoro-1-(pyridazin-3-ylmethyl)-benzimidazol-2-yl)isoxazol-3-amine]: the IC50 was less than 5000 nM.
In the case of `Cc1nonc1-c1nc2cccc(F)c2n1Cc1cnc(C#N)cn1` [Example 41, 5-[[7-fluoro-2-(4-methyl-1,2,5-oxadiazol-3-yl)benzimidazol-1-yl]methyl]pyrazine-2-carbonitrile], the IC50 was less than 100 nM.
As for `Nc1nonc1-c1nc2ccccc2n1Cc1ccc(Br)nc1` [Example 88, 4-(1-((6-bromopyridin-3-yl)methyl)benzimidazol-2-yl)-1,2,5-oxadiazol-3-amine], the IC50 is less than 50 nM.
With `CC(c1cccnc1)n1c(-c2nonc2N)nc2ccccc21` (racemic) [Example 85, rac-4-[1-[1-(pyridin-3-yl)ethyl]benzimidazol-2-yl]-1,2,5-oxadiazol-3-amine], the IC50 is less than 5000 nM.
Turning to `Cc1nonc1-c1nc2ccccc2n1Cc1ccncc1` [Example 98, 3-methyl-4-[1-(pyridin-4-ylmethyl)benzimidazol-2-yl]-1,2,5-oxadiazole], the IC50 was less than 100 nM.
On to `Cc1conc1-c1nc2ccccc2n1Cc1cccnc1` [Example 104, 4-methyl-3-[1-(pyridin-3-ylmethyl)benzimidazol-2-yl]isoxazole], for which the 50% inhibitory concentration (IC50) is less than 200 nM.
As for `Nc1nonc1-c1nc2cccc(F)c2n1Cc1ccc(O)nn1` [Example 150, 6-((2-(4-amino-1,2,5-oxadiazol-3-yl)-7-fluoro-benzimidazol-1-yl)methyl)pyridazin-3-ol], the IC50 is less than 200 nM.
Turning to `CNS(=O)(=O)c1ccc(Cn2c(-c3nonc3C)nc3ccccc32)cn1` [Example 164, N-methyl-5-((2-(4-methyl-1,2,5-oxadiazol-3-yl)-benzimidazol-1-yl)methyl)pyridine-2-sulfonamide], the IC50 was less than 1000 nM.
Consider `Cc1nonc1-c1nc2c(F)ccc(F)c2n1Cc1cnc(C#N)nc1` [Example 83, 5-[[4,7-difluoro-2-(4-methyl-1,2,5-oxadiazol-3-yl)benzimidazol-1-yl]methyl]pyrimidine-2-carbonitrile], for which the IC50 was less than 200 nM.
As to `Cc1nonc1-c1nc2ccccc2n1Cc1cccnc1C#N` [Example 67, 3-[[2-(4-methyl-1,2,5-oxadiazol-3-yl)benzimidazol-1-yl]methyl]pyridine-2-carbonitrile], the half-maximal inhibitory concentration (IC50) was less than 200 nM.
Still for that read-out and setting: under `Nc1nonc1-c1nc2cc(Br)ccc2n1Cc1cccnc1` [Example 33, 4-[5-bromo-1-(pyridin-3-ylmethyl)benzimidazol-2-yl]-1,2,5-oxadiazol-3-amine] stands less than 50 nM.
The same measure, in the same setting: under `Cc1nonc1-c1nc2cccc(F)c2n1Cc1ccc(Cl)nc1` [Example 38, 3-[1-[(6-chloropyridin-3-yl)methyl]-7-fluoro-benzimidazol-2-yl]-4-methyl-1,2,5-oxadiazole] stands less than 50 nM; under `Nc1nonc1-c1nc2cc(F)ccc2n1Cc1cccnc1` (single isomer, unassigned) [Example 119, 4-[5-fluoro-1-(pyridin-3-ylmethyl)benzimidazol-2-yl]-1,2,5-oxadiazol-3-amine], less than 50 nM; under `Nc1nonc1-c1nc2c(F)cccc2n1Cc1ccc(C(F)F)nn1` (single isomer, unassigned) [Example 173, 4-(1-((6-(difluoromethyl)pyridazin-3-yl)methyl)-4-fluoro-benzimidazol-2-yl)-1,2,5-oxadiazol-3-amine], less than 500 nM.
`Nc1nonc1-c1nc2ccc(F)c(F)c2n1Cc1cccnn1` (single isomer, unassigned) [Example 162, 4-(6,7-difluoro-1-(pyridazin-3-ylmethyl)-benzimidazol-2-yl)-1,2,5-oxadiazol-3-amine]: the 50% inhibitory concentration (IC50) was less than 50 nM.
Same read-out and setting: under `Nc1nonc1-c1nc2cccc(F)c2n1Cc1ccncn1` (single isomer, unassigned) [Example 134, 4-(7-fluoro-1-(pyrimidin-4-ylmethyl)-benzimidazol-2-yl)-1,2,5-oxadiazol-3-amine] stands less than 50 nM; under `Cc1cc(C)nc(Cn2c(-c3nonc3C)nc3ccccc32)c1` [Example 75, 3-[1-[(4,6-dimethylpyridin-2-yl)methyl]benzimidazol-2-yl]-4-methyl-1,2,5-oxadiazole], less than 500 nM; under `COc1ccc(Cn2c(-c3nonc3C)nc3cccnc32)cn1` [Example 16, 3-[3-[(6-methoxypyridin-3-yl)methyl]imidazo[4,5-b]pyridin-2-yl]-4-methyl-1,2,5-oxadiazole], less than 200 nM.
Turning to `Cc1nonc1-c1nc2ccncc2n1Cc1cccnc1` [Example 110, 3-methyl-4-[3-(pyridin-3-ylmethyl)imidazo[4,5-c]pyridin-2-yl]-1,2,5-oxadiazole], the IC50 is less than 500 nM.
As for `COc1cc(Cn2c(-c3nonc3N)nc3cccc(F)c32)ccn1` (single isomer, unassigned) [Example 183, 4-(7-fluoro-1-((2-methoxypyridin-4-yl)methyl)-benzimidazol-2-yl)-1,2,5-oxadiazol-3-amine], the IC50 is less than 100 nM.
On to `Cc1cn(C)nc1-c1nc2ccccc2n1Cc1cccnc1` [Example 113, 2-(1,4-dimethylpyrazol-3-yl)-1-(pyridin-3-ylmethyl)benzimidazole], for which the IC50 is less than 500 nM.
Regarding `Cc1cnoc1-c1nc2ccccc2n1Cc1cccnc1` [Example 130, 4-methyl-5-[1-(pyridin-3-ylmethyl)benzimidazol-2-yl]isoxazole], the 50% inhibitory concentration (IC50) is less than 100 nM.
As for `Cc1nonc1-c1nc2cccc(Cl)c2n1Cc1ccc(C#N)nc1` (single isomer, unassigned) [Example 62, 5-[[7-chloro-2-(4-methyl-1,2,5-oxadiazol-3-yl)benzimidazol-1-yl]methyl]pyridine-2-carbonitrile], the IC50 is less than 200 nM.
With `Nc1nonc1-c1nc2ccccc2n1Cc1ccccn1` [Example 115, 4-[1-(pyridin-2-ylmethyl)benzimidazol-2-yl]-1,2,5-oxadiazol-3-amine], the IC50 is less than 1000 nM.
Consider `Cc1nonc1-c1nc2ccccc2n1Cc1ccc[n+]([O-])c1` [Example 76, 3-methyl-4-[1-[(1-oxidopyridin-1-ium-3-yl)methyl]benzimidazol-2-yl]-1,2,5-oxadiazole], for which the IC50 was less than 500 nM.
For the compound `Nc1nonc1-c1nc2cccnc2n1Cc1ccc(C(F)(F)F)nc1` [Example 19, 4-[3-[[6-(trifluoromethyl)pyridin-3-yl]methyl]imidazo[4,5-b]pyridin-2-yl]-1,2,5-oxadiazol-3-amine], the IC50 is less than 500 nM.
On the same count and under the same terms, as for `N#Cc1ncc(Cn2c(-c3nonc3N)nc3ccc(F)c(F)c32)cn1` [Example 2, 5-[[2-(4-amino-1,2,5-oxadiazol-3-yl)-6,7-difluoro-benzimidazol-1-yl]methyl]pyrimidine-2-carbonitrile], the figure is less than 50 nM; as for `Brc1nsnc1-c1nc2ccccc2n1Cc1cccnc1` [Example 126, 3-bromo-4-(1-(pyridin-3-ylmethyl)benzimidazol-2-yl)-1,2,5-thiadiazole], less than 100 nM.
`Cc1nonc1-c1nc2ccccc2n1Cc1ccccn1` [Example 79, 3-methyl-4-[1-(pyridin-2-ylmethyl)benzimidazol-2-yl]-1,2,5-oxadiazole]: the half-inhibitory concentration (IC50) is less than 500 nM.
In the case of `Cn1nccc1-c1nc2ccccc2n1Cc1cccnc1` [Example 114, 2-(1-methylpyrazol-5-yl)-1-(pyridin-3-ylmethyl)benzimidazole], the IC50 was less than 1000 nM.

Values taken from US20240158385A1, “NOVEL COMPOUNDS” (Cerevance, Inc., priority 2021, published 2024).
